Results: patent US4681755A, “Delivery device for zero-order release of an active principle into a dissolution fluid and process for its preparation” (Sigma-Tau Industrie Farmaceutiche Riunite S.p.A., priority 1984, dated 1987)
Where two headings read alike, the source gives them in different places.

Tests used:
[1] = In vitro release, USP XXI "paddle" apparatus, distilled water at 37° C.; type: physicochemical
Protocol: "In vitro" experiments were carried out both on (i) the uncoated solid matrix-type reservoirs, and (ii) the finished devices; i.e., on the reservoirs coated both with the release rate-controlling membrane and with the protective membrane loaded with a portion of the active principle which is desired to be immediately available.
To carry out such experiments, a USP XXI "paddle" apparatus was used with distilled water at 37° C. as the dissolution medium.

[2] = as above; type: physicochemical; details: Ex. 2, coated reservoir, no drug in protective membrane
[3] = Ex. 1 device, healthy volunteer
Protocol: A healthy volunteer was administered the same device. The following plasma levels of active principle were detected.

[4] = In vitro model, diltiazem release (Example 7; apparatus not restated); type: physicochemical
[5] = Ex. 1, coated reservoir, drug-loaded protective membrane, 1 h
[6] = Ex. 1, coated reservoir, drug-loaded protective membrane, 2 h
[7] = Ex. 1, coated reservoir, drug-loaded protective membrane, 3 h
[8] = Ex. 1, coated reservoir, drug-loaded protective membrane, 4 h
[9] = Ex. 1, coated reservoir, drug-loaded protective membrane, 5 h
[10] = Ex. 1, coated reservoir, drug-loaded protective membrane, 6 h
[11] = Ex. 1, uncoated solid matrix-type reservoir (100 mg), 30 min
[12] = Ex. 1, uncoated solid matrix-type reservoir (100 mg), 60 min
[13] = Ex. 1, uncoated solid matrix-type reservoir (100 mg), 90 min
[14] = Ex. 1, uncoated solid matrix-type reservoir (100 mg), 120 min

Work on `CC(=O)O[C@H](CC(=O)[O-])C[N+](C)(C)C` [Acetyl L-carnitine, acetyl L-carnitine] yielded a Total drug released ([1]; Ex. 3, coated reservoir, no drug in protective membrane, 1 h) of 60 mg, a Total drug released ([1]; Ex. 3, coated reservoir, no drug in protective membrane, 2 h) of 135 mg and a Total drug released ([1]; Ex. 3, coated reservoir, no drug in protective membrane, 3 h) of 210 mg. The Total drug released ([1]; Ex. 3, coated reservoir, no drug in protective membrane, 4 h) was 280 mg, the Total drug released ([1]; Ex. 3, coated reservoir, no drug in protective membrane, 5 h) was 348 mg and the Total drug released ([1]; Ex. 3, coated reservoir, no drug in protective membrane, 6 h) was 411 mg. It also gave a Total drug released ([1]; Ex. 3, uncoated solid matrix-type reservoir (500 mg), 30 min) of 158 mg, a Total drug released ([1]; Ex. 3, uncoated solid matrix-type reservoir (500 mg), 60 min) of 242 mg and a Total drug released ([1]; Ex. 3, uncoated solid matrix-type reservoir (500 mg), 90 min) of 335 mg. For the same compound, the Total drug released ([1]; Ex. 3, uncoated solid matrix-type reservoir (500 mg), 120 min) was 395 mg.

With methisoprinol the Total drug released ([1]; Ex. 2, coated reservoir, no drug in protective membrane, 2 h) was 115 mg, the Total drug released ([1]; Ex. 2, coated reservoir, no drug in protective membrane, 3 h) was 173 mg and the Total drug released ([1]; Ex. 2, coated reservoir, no drug in protective membrane, 4 h) was 223 mg. It also gave a Total drug released ([1]; Ex. 2, coated reservoir, no drug in protective membrane, 6 h) of 315 mg, a Total drug released ([1]; Ex. 2, coated reservoir, no drug in protective membrane, 7 h) of 357 mg and a Total drug released ([1]; Ex. 2, uncoated solid matrix-type reservoir (500 mg), 30 min) of 225 mg. The Total drug released ([1]; Ex. 2, uncoated solid matrix-type reservoir (500 mg), 60 min) was 312 mg, the Total drug released ([1]; Ex. 2, uncoated solid matrix-type reservoir (500 mg), 90 min) was 365 mg and the Total drug released ([1]; Ex. 2, uncoated solid matrix-type reservoir (500 mg), 120 min) was 405 mg. The Total drug released ([2]; 1 h) was 53 mg and the Total drug released ([2]; 5 h) was 273 mg.

For `COc1ccc2c(c1)c(CC(=O)O)c(C)n2C(=O)c1ccc(Cl)cc1.NCCCC[C@H](N)C(=O)O` [Indomethacin lysinate, Lysine salt of indomethacin], the “Plasma level of active principle” value ([3]; 1 h) was 1600 ng/mL, the “Plasma level of active principle” value ([3]; 2 h) was 2500 ng/mL and the “Plasma level of active principle” value ([3]; 5 h) was 3200 ng/mL. For the same compound, the “Plasma level of active principle” value ([3]; 8 h) was 1500 ng/mL, the “Plasma level of active principle” value ([3]; 12 h) was 1100 ng/mL and the “Plasma level of active principle” value ([3]; 24 h) was 800 ng/mL. For the same compound, the “Release rate in vitro” value ([1]; Ex. 1, after release rate-controlling membrane is applied) was “substantially constant through the sixth hour”, the Rate [1, 5] was 14 mg/h and the Total drug released [1, 5] was 14 mg. For the same compound, the Rate [1, 6] was 12.5 mg/h, the Total drug released [1, 6] was 25 mg and the Rate [1, 7] was 13.3 mg/h. For the same compound, the Total drug released [1, 7] was 40 mg, the Rate [1, 8] was 14.25 mg/h and the Total drug released [1, 8] was 57 mg. The Rate [1, 9] was 15.4 mg/h, the Total drug released [1, 9] was 77 mg and the Rate [1, 10] was 15.5 mg/h. For the same compound, the Total drug released [1, 10] was 93 mg, the “Time in which drug is wholly released” value ([1]; Ex. 1, uncoated solid matrix-type reservoir) was “about 5 hours” and the Rate [1, 11] was 40 mg/h. It also gave a Total drug released [1, 11] of 20 mg, a Rate [1, 12] of 54 mg/h and a Total drug released [1, 12] of 54 mg. It also gave a Rate [1, 13] of 43 mg/h, a Total drug released [1, 13] of 65 mg and a Rate [1, 14] of 37.5 mg/h. For the same compound, the Total drug released [1, 14] was 75 mg.

Compound `CCC(COC(=O)c1cc(OC)c(OC)c(OC)c1)(c1ccccc1)N(C)C` (stereo not shown) [Trimebutine, trimebutine] has a Total drug released ([1]; Ex. 5, coated reservoir, drug-loaded protective membrane, 1 h) of 18 mg, a Total drug released ([1]; Ex. 5, coated reservoir, drug-loaded protective membrane, 2 h) of 30 mg and a Total drug released ([1]; Ex. 5, coated reservoir, drug-loaded protective membrane, 3 h) of 50 mg. It also gave a Total drug released ([1]; Ex. 5, coated reservoir, drug-loaded protective membrane, 4 h) of 67 mg, a Total drug released ([1]; Ex. 5, coated reservoir, drug-loaded protective membrane, 5 h) of 90 mg and a Total drug released ([1]; Ex. 5, coated reservoir, drug-loaded protective membrane, 6 h) of 103 mg. For the same compound, the Total drug released ([1]; Ex. 5, uncoated solid matrix-type reservoir (140 mg), 30 min) was 20 mg, the Total drug released ([1]; Ex. 5, uncoated solid matrix-type reservoir (140 mg), 60 min) was 64 mg and the Total drug released ([1]; Ex. 5, uncoated solid matrix-type reservoir (140 mg), 90 min) was 80 mg. The Total drug released ([1]; Ex. 5, uncoated solid matrix-type reservoir (140 mg), 120 min) was 105 mg, the Total drug released ([1]; Ex. 6, coated reservoir, protective membrane loaded with 15 mg drug, 0.5 h) was 22.5 mg and the Total drug released ([1]; Ex. 6, coated reservoir, protective membrane loaded with 15 mg drug, 1 h) was 45.0 mg. The Total drug released ([1]; Ex. 6, coated reservoir, protective membrane loaded with 15 mg drug, 2 h) was 82.5 mg, the Total drug released ([1]; Ex. 6, coated reservoir, protective membrane loaded with 15 mg drug, 3 h) was 105.0 mg and the Total drug released ([1]; Ex. 6, coated reservoir, protective membrane loaded with 15 mg drug, 4 h) was 120.0 mg. It also gave a Total drug released ([1]; Ex. 6, coated reservoir, protective membrane loaded with 15 mg drug, 5 h) of 127.5 mg, a Total drug released ([1]; Ex. 6, uncoated solid matrix-type reservoir (135 mg), 20 min) of 47 mg and a Total drug released ([1]; Ex. 6, uncoated solid matrix-type reservoir (135 mg), 40 min) of 64.8 mg. It also gave a Total drug released ([1]; Ex. 6, uncoated solid matrix-type reservoir (135 mg), 60 min) of 77.0 mg, a Total drug released ([1]; Ex. 6, uncoated solid matrix-type reservoir (135 mg), 80 min) of 87.8 mg and a Total drug released ([1]; Ex. 6, uncoated solid matrix-type reservoir (135 mg), 100 min) of 94.5 mg. The Total drug released ([1]; Ex. 6, uncoated solid matrix-type reservoir (135 mg), 180 min) was 115 mg.

`COc1ccc2c(C(=O)c3ccc(Cl)cc3)c(C)n(CC(=O)O)c2c1.NCCCCC(N)C(=O)O` [Clometacin lysinate, clometacin lysinate] gave a Total drug released ([1]; Ex. 4, coated reservoir, drug-loaded protective membrane, 1 h) of 15 mg, a Total drug released ([1]; Ex. 4, coated reservoir, drug-loaded protective membrane, 2 h) of 40 mg and a Total drug released ([1]; Ex. 4, coated reservoir, drug-loaded protective membrane, 3 h) of 61 mg. It also gave a Total drug released ([1]; Ex. 4, coated reservoir, drug-loaded protective membrane, 4 h) of 78 mg, a Total drug released ([1]; Ex. 4, coated reservoir, drug-loaded protective membrane, 5 h) of 95 mg and a Total drug released ([1]; Ex. 4, coated reservoir, drug-loaded protective membrane, 6 h) of 116 mg. It also gave a Total drug released ([1]; Ex. 4, uncoated solid matrix-type reservoir (150 mg), 30 min) of 63 mg, a Total drug released ([1]; Ex. 4, uncoated solid matrix-type reservoir (150 mg), 60 min) of 91 mg and a Total drug released ([1]; Ex. 4, uncoated solid matrix-type reservoir (150 mg), 90 min) of 105 mg. The Total drug released ([1]; Ex. 4, uncoated solid matrix-type reservoir (150 mg), 120 min) was 124 mg.

For `COc1ccc([C@@H]2Sc3ccccc3N(CCN(C)C)C(=O)[C@@H]2OC(C)=O)cc1.Cl` [Diltiazem, diltiazem HCl], the Total drug released ([4]; Ex. 7, coated reservoir, no drug in protective membrane, 0.5 h) was 14.4 mg, the Total drug released ([4]; Ex. 7, coated reservoir, no drug in protective membrane, 1 h) was 29.5 mg and the Total drug released ([4]; Ex. 7, coated reservoir, no drug in protective membrane, 2 h) was 67.6 mg. The Total drug released ([4]; Ex. 7, coated reservoir, no drug in protective membrane, 3 h) was 89.9 mg, the Total drug released ([4]; Ex. 7, coated reservoir, no drug in protective membrane, 4 h) was 102.3 mg and the Total drug released ([4]; Ex. 7, uncoated solid matrix-type reservoir (120 mg), 15 min) was 40.0 mg. For the same compound, the Total drug released ([4]; Ex. 7, uncoated solid matrix-type reservoir (120 mg), 30 min) was 57.6 mg, the Total drug released ([4]; Ex. 7, uncoated solid matrix-type reservoir (120 mg), 45 min) was 69.6 mg and the Total drug released ([4]; Ex. 7, uncoated solid matrix-type reservoir (120 mg), 60 min) was 80.4 mg. The Total drug released ([4]; Ex. 7, uncoated solid matrix-type reservoir (120 mg), 75 min) was 85.2 mg.
